The text below walks through data of patent publication US20110126300A1, “High Through-Put Method of Screening Compounds for Pharmacological Activity” (priority 2005, published 2011).

The test system of data set [1] is wild type zebrafish larvae. Nature of the data set: PTZ-induced seizure assay in larvae. The class given is in vivo. The following applies: PTZ 15 uM, 4 day post-fertilization wild type larvae. The protocol: To assay small molecule compounds with anti-seizure activity, 4 day post-fertilization wild type zebrafish were placed in 96-well plates (5 larvae per well) and incubated in the test compounds (20 uM) as above, for either 2 or 12 hrs. Subsequently, the larvae were administered pentylenetetrazole (PTZ; 15 uM) and observed for seizure activity (i.e., a change in phenotype). […] This activity persists for approximately 20 minutes and then culminates in a tonic convulsion that abolishes movement and normal posture. Prior to or after onset of the seizure activity, the small molecule test compound was administered to the larvae and the response of the fish assessed visually or by digital recording.
Scoring was based upon whether the test compound was able to inhibit or modify the seizure activity of the larvae.

Data set [2] deals with meltdown (mlt) mutant larvae. In words: Rescue of the mlt mutant phenotype by compound exposure, read out with fluorescent lipid PED6 in the posterior intestine. The class given is in vivo, zebrafish (Danio rerio). The protocol: For testing, the embryos were then cultured in the presence of the test compound(s) overnight or up to 96 hrs at 28.5° C., for example, in 96-well plates. Mutant larvae and mutants reared in the presence of small molecule compounds may be bathed in the fluorescent lipid PED6 or fluorescent microspheres, which outline the digestive tract lumen and can be seen by visual inspection or by a commercially-available fluorescent plate scanner, typically by 96-120 hours post fertilization (hpf). Although signals that regulate regional epithelial differentiation and renewal are poorly understood, in meltdown (mlt), the posterior gut is disorganized and bears an expanded mesenchyme (Briggs, Am. J. Physiol. Regulatory Integrative Comp. Physiol. 282: R3-9 (2002)). Neither fluorescent marker enters the posterior intestine of mlt mutants because the intestinal lumen is obstructed by the massive cysts that form in all mlt mutant larvae.
No effect: A test compound was considered to have no effect if none of the mlt mutant larvae show fluorescent lipid in the posterior intestine.
When no mutants were observed, one possibility was that the test compound produced a complete rescue of the mutant phenotype. The other possibility was that there were never any mutants present in the well. When embryos derived from matings of heterozygous mlt/+ fish are used for these assays, then with 8-10 embryos per test compound, the latter possibility may be calculated to occur with a frequency of 0.01%.
Partial rescue: Partial rescue was considered when mutants or the mutant phenotype was present, but the fluorescent markers were present in the posterior intestine.
In the present assays, mosaic zebrafish were generated in which homozygous mlt/mlt cells have replaced the native germline of wild type fish. 100% of the offspring derived from pair wise matings of such modified zebrafish are homozygous for the mlt mutation. Thus, all of the larvae placed in each well of the 96-well plate are mlt mutants, greatly enhancing the efficiency of each assay. […]

The test system of data set [3] is wild type zebrafish larvae. Nature of the data set: Wild type larvae exposed to compound, PED6 imaging of intestine contour. The format is in vivo, zebrafish (Danio rerio). The following applies: 6 dpf wild type larvae, 2 hour exposure to PED6; FIG. 2B. The protocol:
FIGS. 2A-2D photographically show lateral fluorescent images of 6 dpf zebrafish larvae following 2 hour exposure to fluorescent lipid PED6.
For rescue experiments, 1-cell stage embryos derived from pair-wise mating of heterozygous mlt carriers were injected with either the MT-mmpa, morpholino alone or in combination with the β4 integrin morpholino. Subsequently, all embryos were injected with either 0.375 or 0.1875 pg of tissue inhibitor of metalloproteinases 2 (TIMP2 inhibitor) (PF021; Oncogene Research Products, now Calbiochem, San Diego, Calif.) at 48 hpf. Alternatively, 2.5 dpf or 3 dpf larvae were incubated in the TGF-β Type I receptor inhibitor SB 431542, 100 μM in embryo media. Morpholino sequences were as identified in Wallace et al., supra, 2005b for smooth muscle myosin heavy chain, β4 integrin, and MT-mmpa.

As to `C1CCc2nnnn2CC1` [PTZ, pentylenetetrazole], the “duration of seizure activity before tonic convulsion” value in data set [1] is “approximately 20 minutes”.

As to `NC(=O)c1ccc(-c2nc(-c3ccc4c(c3)OCO4)c(-c3ccccn3)[nH]2)cc1` [SB431542], the “posterior intestinal PED6 fluorescence and intestine contour in mlt larvae” value in data set [2] (6 dpf mlt larvae, 2 hour exposure to PED6, FIG. 2D) is “posterior intestinal fluorescence and the contour is normal”. Moreover, the “rescue of the mlt mutant phenotype (fluorescent lipid in posterior intestine)” value in data set [2] (compound added ~60 hpf, PED6 at 96 hpf, imaged at 120 hpf) was “rescuing the mutant phenotype”. Moreover, the “intestinal cysts versus untreated mlt larvae” value in data set [2] (mlt larvae scored at 5 dpf, treated at 2.5 dpf or 3 dpf, 100 μM in embryo media) is “far fewer cysts than untreated mlt larvae”. In addition, the “intestine contour in wild type larvae” value in data set [3] is reported as “normal intestine contour”.
